The subject of one assay is Botrytis cinerea. Kind of assay: In vivo preventive test on Botrytis cinerea (grey mould). The settings on record: 500 ppm of active ingredient, preventive spray on gherkin or cabbage, evaluated 4 to 5 days after inoculation, read-out: efficacy. Summed up: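 Young gherkin or cabbage plants were sprayed with compound in DMSO/acetone/Tween 80 diluted in water, then inoculated 24 hours later with a B. cinerea spore suspension. Incubation lasted 4 to 5 days: gherkin at 17° C., 90% relative humidity; cabbage at 20° C., 100% relative humidity.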

The test system of another assay is Septoria tritici. As to the kind of experiment: B-9. Septoria tritici in vitro cell test. The assay is classed as cell-based. Particulars: Zymoseptoria tritici, 168 h; 20 ppm of active ingredient; 7 days incubation; liquid culture, absorbance; read-out: efficacy (inhibition of fungal growth). Summed up: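 Compounds from DMSO stocks (final DMSO ≤1%) were added to liquid medium containing S. tritici spores to test inhibition of germination and mycelial growth. After 7 days, mycelium growth was read spectrometrically and inhibition derived from absorbance versus fungicide-free control wells.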

The test system of a further assay is Pyrenophora teres. Kind of assay: B-10. Pyrenophora teres in vitro cell test. It counts as cell-based. The settings on record: 144 h, 20 ppm of active ingredient, 6 days incubation, liquid culture, absorbance, read-out: efficacy (inhibition of fungal growth). The method, boiled down:
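Liquid-culture assay on a P. teres spore suspension with compounds added to the medium from DMSO solutions, final DMSO ≤1%. Mycelium growth read spectrometrically after 6 days. Inhibition calculated from absorbance against untreated control wells.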

The values below come from patent US20230192617A1, “AZABICYCLIC(THIO)AMIDES AS FUNGICIDAL COMPOUNDS” (Bayer CropScience Aktiengesellschaft, priority 2020, published 2023).

For orientation: inhibition means the percentage by which the read-out fell short of the control.

As for `Cc1ccc(C(F)CNC(=O)c2c(Oc3cccc(Cl)c3F)nnc3c2CCCC3)c(C)c1` (stereo not drawn) [I-136], the pest or weed control at 500 ppm in the assay on Botrytis cinerea was 90 to 100%. Also, the inhibition at 20 ppm in the assay with Septoria tritici and with Pyrenophora teres was 90 to 100% each time.
As to `Cc1ccc([C@@H](F)CNC(=O)c2c(Oc3cccc(C(F)(F)F)c3)nnc3ccccc23)cc1C` (racemic) [I-084], the pest or weed control at 500 ppm in the assay with Botrytis cinerea fell in the range of 90 to 100%. Moreover, the inhibition at 20 ppm in the assay on Septoria tritici and with Pyrenophora teres was 90 to 100% throughout.
As for `O=C(NCC(F)c1ccc(Cl)cc1Cl)c1c(Oc2cccc(Cl)c2F)nnc2c1CCCC2` (stereo not drawn) [I-149], the pest or weed control at 500 ppm in the assay on Botrytis cinerea lay within 90 to 100%. In addition, the inhibition at 20 ppm with Septoria tritici and with Pyrenophora teres was 90 to 100% throughout.
With `O=C(NCC(F)c1ccc(Cl)cc1Cl)c1c(Oc2cccc(Cl)c2F)nnc2c1CCC2` (stereo not drawn) [I-188], the pest or weed control at 500 ppm with Botrytis cinerea was 90 to 100%. Moreover, the inhibition at 20 ppm with Septoria tritici and in the assay on Pyrenophora teres was 90 to 100% each time.
`Cc1ccc(C(F)(F)CNC(=O)c2c(Oc3cccc(C(F)F)c3)nnc3c2CCCC3)c(Cl)c1` [I-243]: the pest or weed control at 500 ppm with Botrytis cinerea is 90 to 100%. Besides, the inhibition at 20 ppm with Septoria tritici and with Pyrenophora teres was 90 to 100% each time.
Consider `Cc1ccc2c(C(=O)NCC(F)(F)c3ccc(C)c(C)c3)c(Oc3cccc(C(F)(F)F)c3)nnc2c1` [I-246], for which the pest or weed control at 500 ppm with Botrytis cinerea lay within 90 to 100%. Further, the inhibition at 20 ppm in the assay with Septoria tritici and with Pyrenophora teres was 90 to 100% throughout.
With `Cc1ccc(C(F)(F)CNC(=O)c2c(Oc3cccc(C4CC4)c3F)nnc3c2CCCC3)c(Cl)c1` [I-141], the pest or weed control at 500 ppm with Botrytis cinerea lay within 90 to 100%. For the same molecule, the inhibition at 20 ppm in the assay on Septoria tritici and with Pyrenophora teres was 90 to 100% throughout.
Take `O=C(NCC(F)(F)c1ccc(Br)cc1Cl)c1c(Oc2cccc(C(F)(F)F)c2)nnc2c1COCC2` [I-229]: the pest or weed control at 500 ppm in the assay with Botrytis cinerea was 90 to 100%. Further, the inhibition at 20 ppm with Septoria tritici and in the assay with Pyrenophora teres was 90 to 100% in each case.
Turning to `O=C(NCC(F)(F)c1ccc(Br)cc1Cl)c1c(Oc2cccc(C(F)(F)F)c2)nnc2c1CCC2` [I-212], the pest or weed control at 500 ppm in the assay on Botrytis cinerea lay in the range of 90 to 100%. Further, the inhibition at 20 ppm with Septoria tritici and in the assay with Pyrenophora teres was 90 to 100% in each case.
Take `Cc1ccc(C(F)(F)CNC(=O)c2c(Oc3cccc(Cl)c3)nnc3c2CCCC3)c(Cl)c1` [I-139]: in the assay on Botrytis cinerea, the pest or weed control at 500 ppm is 90 to 100%. The inhibition at 20 ppm with Septoria tritici and in the assay on Pyrenophora teres was 90 to 100% in each case.
Take `Cc1ccc(C(F)(F)CNC(=O)c2c(Oc3cccc(Br)c3)nnc3ccccc23)c(C)c1` [I-216]: in the assay on Botrytis cinerea, the pest or weed control at 500 ppm lay within 90 to 100%. Besides, the inhibition at 20 ppm in the assay on Septoria tritici was 80 to 89%; in the assay with Pyrenophora teres it was 90 to 100%.
Take `Cc1ccc(C(F)(F)CNC(=O)c2c(Oc3cccc(C(F)(F)F)c3)nnc3c2CCC3)c(C)c1` [I-132]: in the assay with Botrytis cinerea, the pest or weed control at 500 ppm fell in the range of 90 to 100%. The inhibition at 20 ppm in the assay with Septoria tritici and in the assay with Pyrenophora teres was 90 to 100% throughout.
Turning to `O=C(NCC(F)(F)c1ccc(Br)cc1Cl)c1c(Oc2cccc(Cl)c2F)nnc2c1CCC2` [I-213], in the assay on Botrytis cinerea, the pest or weed control at 500 ppm fell in the range of 90 to 100%. The inhibition at 20 ppm in the assay on Septoria tritici and in the assay with Pyrenophora teres was 90 to 100% in each case.
As for `Cc1ccc(C(F)(F)CNC(=O)c2c(Oc3cccc(C(F)(F)F)c3)nnc3c2COCC3)c(Cl)c1` [I-124], the pest or weed control at 500 ppm in the assay with Botrytis cinerea was 90 to 100%. For the same molecule, the inhibition at 20 ppm in the assay with Septoria tritici and with Pyrenophora teres was 90 to 100% throughout.
Regarding `Cc1cc(Br)ccc1C(F)(F)CNC(=O)c1c(Oc2cccc(Cl)c2F)nnc2c1CCCC2` [I-152], in the assay with Botrytis cinerea, the pest or weed control at 500 ppm is 90 to 100%. In addition, the inhibition at 20 ppm in the assay on Septoria tritici and in the assay on Pyrenophora teres was 90 to 100% throughout.
For the molecule `Cc1ccc(C(F)(F)CNC(=O)c2c(Oc3cccc(C(F)F)c3)nnc3c2CCCC3)c(C)c1` [I-129], the pest or weed control at 500 ppm in the assay on Botrytis cinerea lay within 90 to 100%. Moreover, the inhibition at 20 ppm in the assay on Septoria tritici and in the assay with Pyrenophora teres was 90 to 100% in each case.
